Laboratory results: publication PMC5854746 (Cancer Chemotherapy and Pharmacology, 2018)
“And” between values parts separate entries of the source, which are not always exact repeats. Equal values may be shown once. “Also recorded” adds a separate entry of the source. Read-outs that look alike come from different tables or passages of the source.

Key:
[1] = test system: plasma proteins, mainly albumin and α-1 acid glycoprotein; conditions: cited from earlier work
[2] = cited from earlier work
[3] = clinical; conditions: human, plasma; for clearance: Cltot; for half-life: T 1/2el; for Vd: V d; for AUC(0-t): 100 mg p.o.
[4] = oral; 9 (ref 1, 11); cited from earlier work
[5] = Optimized value, updated based on literature data ref 1, 32; cited from earlier work
[6] = Day 3, observed, 100 mg p.o. q.d., n=26
[7] = Day 6 (steady state), observed, 100 mg p.o. q.d., n=26
[8] = co-administered ARAs, study population
[9] = oral, mean ± SD, Day 1, observed, n=26, calculated with a bioavailability of 60%
[10] = oral, min–max, Day 1, observed, n=26
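Wherever C last (trough at 24 h), mean ± SD is given: plasma pharmacokinetics in a phase 1b study of patients with locally advanced or metastatic pancreatic adenocarcinoma.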
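Wherever C peak, mean ± SD is given: plasma pharmacokinetics in a phase 1b study of patients with locally advanced or metastatic pancreatic adenocarcinoma.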
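Wherever C trough, mean ± SD is given: plasma pharmacokinetics in a phase 1b study of patients with locally advanced or metastatic pancreatic adenocarcinoma.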
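Wherever T max, median is given: plasma pharmacokinetics in a phase 1b study of patients with locally advanced or metastatic pancreatic adenocarcinoma.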

C#Cc1cccc(Nc2ncnc3cc(OCCOC)c(OCCOC)cc23)c1 [erlotinib]
C peak, mean ± SD (Day 1, observed, 100 mg erlotinib p.o. q.d., patients n=26, arithmetic mean): 0.84 µg/mL and 0.84 ± 0.54 µg/mL | C last (trough at 24 h), mean ± SD (Day 1, observed, 100 mg p.o. q.d., n=26): 330 ± 290 ng/mL | T max, median (Day 1, observed, 100 mg p.o., n=26): 2.00 h | C peak, mean ± SD [6]: 1.04 ± 0.62 µg/mL | C trough, mean ± SD [6]: 450 ± 370 ng/mL | C peak, mean ± SD [7]: 1.38 µg/mL and 1.38 ± 0.66 µg/mL | C trough, mean ± SD [7]: 720 ng/mL and 720 ± 530 ng/mL | Mean trough concentration ± SD (Pat.3, weeks 1–50, N=50, 100 mg q.d.): 0.89 ± 0.68 µg/mL | Mean trough concentration ± SD (Pat.4, weeks 1–8, N=7, 100 mg q.d.): 0.66 ± 0.27 µg/mL | Mean trough concentration ± SD (Pat.5, co-medication of acid reducing agents, weeks 1–4, N=4, 100 mg q.d.): 0.37 ± 0.09 µg/mL | Mean trough concentration ± SD (Pat.6, weeks 1–8, N=8, 100 mg q.d.): 1.78 ± 0.74 µg/mL | Mean trough concentration ± SD (Pat.7, weeks 1–9, N=9, 100 mg q.d.): 1.20 ± 0.51 µg/mL | Reduction of AUC0–24 [8]: 52% | Reduction of Cmax [8]: 56% | Patients with concentrations below the activity threshold of 0.5 µg/ml (during the first week): 7% | Patients that never reached the threshold of 0.5 µg/ml (first week of erlotinib therapy): 2 of the 26 patients | Patients with Ctrough values below the activity threshold (long-term analysis, all received ARAs concomitantly): 5 of the 10 patients | Accumulation of erlotinib in plasma (long-term monitoring up to 50 weeks, 100 mg q.d.): did not show any significant accumulation; also recorded: did not lead to drug accumulation | Patients that did not reach the threshold of 0.5 µg/ml (within 24 h after the first administration): 10 of the 26 patients | Bound to plasma proteins [1]: approximately 95% | Solubility in water ([2]; free base): only very slightly soluble in water | Biopharmaceutics Classification System (BCS) class ([2]; low solubility, high permeability): class II | pKa ([2]; weak base, limited solubility at pH above it): 5.4 | clearance [3, 9]: 91.8 mL/min | clearance [3, 10]: 7.83 to 502 mL/min | concentration at 24 h ([3]; oral, Mean erlotinib trough concentrations calculated for each patient, range, long-term study, 10 patients, 100 mg q.d.): 60 to 1780 ng/mL | concentration at 24 h ([3]; oral, Mean trough concentration ± SD, Pat.1, weeks 1–15, N=10, 100 mg erlotinib q.d.): 1670 ± 440 ng/mL | concentration at 24 h ([3]; oral, Mean trough concentration ± SD, Pat.10, co-medication of acid reducing agents, weeks 1–11, N=11, 100 mg q.d.): 160 ± 60 ng/mL | concentration at 24 h ([3]; oral, Mean trough concentration ± SD, Pat.2, co-medication of acid reducing agents, weeks 1–9, N=9, 100 mg q.d.): 160 ± 40 ng/mL | concentration at 24 h ([3]; oral, Mean trough concentration ± SD, Pat.8, co-medication of acid reducing agents, weeks 1–16, N=16, 100 mg q.d.): 270 ± 380 ng/mL | concentration at 24 h ([3]; oral, Mean trough concentration ± SD, Pat.9, co-medication of acid reducing agents, weeks 1–50, N=47, 100 mg q.d.): 60 ± 40 ng/mL | half-life ([3]; oral, mean ± SD, Day 1, observed, n=26): 18.7 ± 13.1 h | half-life [3, 10]: 4.1 to 59 h | concentration at 24 h ([3]; oral, Trough concentration min–max, Pat.1, weeks 1–15, N=10, 100 mg erlotinib q.d.): 770 to 2200 ng/mL | concentration at 24 h ([3]; oral, Trough concentration min–max, Pat.10, co-medication of acid reducing agents, weeks 1–11, N=11, 100 mg q.d.): 70 to 310 ng/mL | concentration at 24 h ([3]; oral, Trough concentration min–max, Pat.8, co-medication of acid reducing agents, weeks 1–16, N=16, 100 mg q.d.): 20 to 1310 ng/mL | concentration at 24 h ([3]; oral, Trough concentration min–max, Pat.9, co-medication of acid reducing agents, weeks 1–50, N=47, 100 mg q.d.): 10 to 160 ng/mL | concentration at 24 h ([3]; oral, Trough plasma concentrations, range, long-term assessment (up to 50 weeks), 100 mg q.d., 10 patients): 10 to 2400 ng/mL | Vd [3, 9]: 97.9 ± 61.7 L | Vd [3, 10]: 18 to 268 L | Tmax ([3]; po, 100 mg): 1 to 8 h | AUC(0-t) ([3]; po, 100 mg, AUC0–24, mean ± SD, Day 1, observed, n=26): 12500 ± 9380 ng·h/mL | AUC(0-t) ([3]; po, 100 mg, AUC0–24, min–max, Day 1, observed, n=26): 1230 to 36400 ng·h/mL | concentration at 24 h ([3]; po, C last (trough at 24 h), mean ± SD, Day 1, observed, 100 mg p.o. q.d., n=26): 330 ng/mL | concentration at 24 h ([3]; po, C last (trough at 24 h), min–max, Day 1, observed, 100 mg p.o. q.d., n=26): 40 to 1220 ng/mL | Bioavailability (estimated) [4]: 60% | Basic pKa [5]: 5.4 | Intrinsic solubility [5]: 8.9 µg/mL
